# Data published in patent US7098372B1, “Pharmaceutical compositions and methods of using secreted frizzled related protein” (Wyeth, priority 1999, dated 2006).
# T1: human SARP-2 (Homo sapiens, UniProt Q8N474)
# T1 construct: endogenous in cells; host or cells: hOB-03-C5 and hOB-03-CE6 human osteoblast cell lines treated with PGE2
# T1 sequence (Q8N474 32-314): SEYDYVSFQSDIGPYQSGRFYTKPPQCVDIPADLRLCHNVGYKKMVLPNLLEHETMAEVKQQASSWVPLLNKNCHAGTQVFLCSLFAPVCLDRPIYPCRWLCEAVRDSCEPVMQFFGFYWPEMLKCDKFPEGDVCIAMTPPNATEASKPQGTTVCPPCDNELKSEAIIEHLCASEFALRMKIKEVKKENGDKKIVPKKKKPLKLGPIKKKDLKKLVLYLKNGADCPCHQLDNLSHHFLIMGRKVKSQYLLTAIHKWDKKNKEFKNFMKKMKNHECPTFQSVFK
# Columns and labels:
# hOB SFRP mRNA = hOB SFRP mRNA levels after treatment with various agents (method not given); assay type: cell-based, human; settings: for effect on hOB SFRP message expression: various hOB cell lines; for effect on hOB SFRP mRNA levels: hOB-03-C5 cells or hOB-03-CE6 cells
# hOB-01-C1-PS-09 cells [1] = assay: Osteocalcin secretion from hOB-01-C1-PS-09 cells; assay type: cell-based, human
# From the text: (§1) Unlike the parental hOB-01-C1 cell line, the hOB-01-C1-PS-09 cells proliferate 2- to 3-times faster at the permissive temperature with a doubling time of once every 2–3 days (FIG. 22A). However, like the parental cells, the hOB-01-C1-PS-09 cells stop dividing at the non-permissive temperature (FIG. 22A). […] Alkaline phosphatase and osteocalcin are two important markers of the osteocytic lineage.
# However, the secosteroid up-regulates production of this bone-specific matrix protein 11-fold when the cells are incubated at 39° C. It should be noted that the basal levels of alkaline phosphatase expression and osteocalcin secretion by the hOB-01-C1-PS-09 cells are similar to the parental cell line. Thus, both morphologically and biochemically, the hOB-01-C1-PS-09 cells resemble the parental hOB-01-C1 cells and are therefore a reliable in vitro model to study human pre-osteocyte biology.
# hOB-01-C1-PS-09 cells [2] = assay: Alkaline phosphatase activity in hOB-01-C1-PS-09 cells; assay type: cell-based, human
# From the text: as §1
# In addition to vitamin D3 and PTH, the hOB-01-C1-PS-09 cells also respond to additional bone-active agents: for example, glucocorticoids and transforming growth factor (TGF)-β1. Treatment of the cells with the synthetic glucocorticoid, dexamethasone, up-regulates alkaline phosphatase activity approximately 2-fold at 34° C. (FIG. 25), and this effect is once again enhanced when the cells are incubated at 39° C.
# human SARP-2 = molecular target: T1, human SARP-2; assay: Reversal of PGE2-accelerated hOB cell death, Coulter cell counter; assay type: cell-based; settings: co-treatment with PGE2, hOB-03-C5 and hOB-03-CE6 cells
# Procedure: (§2) These experiments were performed in a similar manner to the ones depicted in FIG. 10. However, for these experiments, the cells were co-treated with either vehicle control (i.e., 0.1% ethanol) or PGE2 in the absence or presence of sense (control) or antisense initiation-site directed phosphorothioate oligonucleotides to human SARP-2. The results are presented as either the % relative to the day 0 control (i.e., ˜200,000 cells per well of a 6 well plate) or as the % relative to the vehicle treated control. The results of this experiment indicate that co-treatment of the hOB cells with the antisense oligonucleotide to SARP-2 reverses the ability of PGE2 to accelerate the rate of cell death, while co-treatment with the sense (control) oligonucleotide as no effect on this process.
# as §2, with “The results of this experiment indicate that co-treatment of the hOB cells with the antisense oligonucleotide to SARP-2 reverses the ability of PGE2 to accelerate the rate of cell death, while co-treatment with the sense (control) oligonucleotide as no effect on this process.” left out
# Wnt signaling = assay: TCF-luciferase reporter gene assay of Wnt signaling; assay type: cell-based, human; settings: transfected cDNA, hOB-01-C1-PS-09 or hOB-02-C1-PS-02 cells
# Procedure: SARP-2 or human Frzb-1 expression plasmids downregulates Wnt signaling (when compared to the pcDNA3.1 empty vector control) in the hOB cells as measured by the TCF-luciferase reporter gene assay. This assay is an authentic measurement of Wnt signaling and β-catenin nuclear activity.
# In order to determine if the up-regulation of SFRP-1/FRP-1/SARP-2 gene expression results in an antagonism of the Wnt signaling pathway, hOB-03-CE6 cells were treated with PGE2 and the resulting cells probed with β-catenin monoclonal antibody. Overexpression of Wnt proteins in cells up-regulates a signaling protein known as β-catenin (reviewed in Moon et al. 1997 Cell 88: 725–728; Barth et al. 1997 Curr. Opin. Cell Biol. 9: 683–690; and Nusse 1997 Cell 89: 321–323). […] Therefore, hOB-03-CE6 cells were plated and treated with PGE2 as described in Example 1, except that total cellular protein was extracted and a Western blot analysis for β-catenin was performed using a monoclonal antibody to the protein (Transduction Laboratories) as previously described (Bodine et al. 1996 Endocrinology 137: 4592–4604; Melkonyan et al. 1997 Proc. Natl. Acad. Sci. USA 94: 13636–13641). […] Both human and rat SFRP-1/FRP-1/SARP-2, as well as human Frzb-1/FrzB/Fritz, suppressed TCF-luciferase activity in the hOB cells.
molecule,measurement,setting,value
C[C@]12CC[C@@H]3c4ccc(O)cc4CC[C@H]3[C@@H]1CC[C@@H]2O [17β-estradiol],effect on hOB SFRP message expression,hOB SFRP mRNA,suppresses
interleukin (IL)-1β: interleukin (IL)-1β,effect on hOB SFRP mRNA levels,hOB SFRP mRNA,increases
CC1=C(/C=C/C(C)=C\C=C\C(C)=C\C(=O)O)C(C)(C)CCC1 [9-cis-retinoic acid],effect on hOB SFRP mRNA levels,hOB SFRP mRNA,increases
insulin-like growth factor (IGF)-I: insulin-like growth factor (IGF)-I,effect on hOB SFRP message expression,hOB SFRP mRNA,suppresses
C=C1CC[C@H](O)C/C1=C/C=C1\CCC[C@]2(C)[C@@H]([C@H](C)CCCC(C)C)CC[C@@H]12 [vitamin D3],osteocalcin secretion,hOB-01-C1-PS-09 cells [1]; 34° C.,unable to induce
same,up-regulation of osteocalcin production,hOB-01-C1-PS-09 cells [1]; 39° C.,11 fold
same,effect on hOB SFRP message expression,hOB SFRP mRNA,suppresses
same,enhancement of up-regulation of alkaline phosphatase activity at 39° C.,hOB-01-C1-PS-09 cells [2]; cells incubated at 39° C.,about 4 fold
"5′-GCGCCCGATGCCCATGCC-3′ (phosphorothioate, further chemistry not given here) [antisense oligonucleotide to SARP-2, antisense initiation-site directed phosphorothioate oligonucleotide to human SARP-2]",effect on the ability of PGE2 to accelerate the rate of hOB cell death,human SARP-2,reversed
CC1=C(/C=C/C(C)=C/C=C/C(C)=C/C(=O)O)C(C)(C)CCC1 [all-trans-retinoic acid],effect on hOB SFRP mRNA levels,hOB SFRP mRNA,increases
C[C@@H]1C[C@H]2[C@@H]3CCC4=CC(=O)C=C[C@]4(C)[C@@]3(F)[C@@H](O)C[C@]2(C)[C@@]1(O)C(=O)CO [dexamethasone],up-regulation of alkaline phosphatase activity,hOB-01-C1-PS-09 cells [2]; 34° C.,approximately 2 fold
"5′-GGCATGGGCATCGGGCGC-3′ (phosphorothioate, further chemistry not given here) [sense (control) oligonucleotide, sense (control) initiation-site directed phosphorothioate oligonucleotide to human SARP-2]",effect on the ability of PGE2 to accelerate the rate of hOB cell death,human SARP-2,no effect
human Frzb-1/FrzB/Fritz: human Frzb-1 expression plasmid transfected into hOB cells (protein) AACEPVRIPLCKSLPWNMTKMPNHLHHSTQANAILAIEQFEGLLGTHCSPDLLFFLCAMYAPICTIDFQHEPIKPCKSVCERARQGCEPILIKYRHSWPENLACEELPVYDRGVCISPEAIVTADGADFPMDSSNGNCRGASSERCKCKPIRATQKTYFRNNYNYVIRAKVKEIKTKCHDVTAVVEVKEILKSSLVNIPRDTVNLYTSSGCLCPPLNVNEEYIIMGYEDEERSRLLLVEGSIAEKWKDRLGKKVKRWDMKLRHLGLSKSDSSNSDSTQSQKSGRNSNPRQARN,TCF-luciferase activity,Wnt signaling,suppressed
